{
  "source": "patent US8278072B1",
  "about": "“Method for synthesis of sialylated products using reversible sialylation” (Health Research, Inc., priority 2007, dated 2012)",
  "biological_target": "T1, ST3Gal-II (Rattus norvegicus, UniProt Q11205)",
  "T1 construct": "purchased Calbiochem",
  "T1 sequence (Q11205 1-350)": "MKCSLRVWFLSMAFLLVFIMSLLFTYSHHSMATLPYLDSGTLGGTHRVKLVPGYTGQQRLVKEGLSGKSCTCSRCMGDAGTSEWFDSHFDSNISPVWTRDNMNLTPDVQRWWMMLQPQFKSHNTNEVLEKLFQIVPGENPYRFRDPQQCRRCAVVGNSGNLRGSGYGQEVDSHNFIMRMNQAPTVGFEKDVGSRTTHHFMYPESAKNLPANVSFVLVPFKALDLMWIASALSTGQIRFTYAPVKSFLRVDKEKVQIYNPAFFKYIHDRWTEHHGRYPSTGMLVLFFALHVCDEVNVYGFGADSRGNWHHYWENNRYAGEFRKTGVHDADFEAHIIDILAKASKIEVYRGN",
  "assay": "Reverse sialylation by ST3Gal-II in presence of citrate or 5′-nucleotides",
  "assay_type": "biochemical",
  "conditions": "0.2 mM [3], 7 mM 5′-CMP, no [5], Dowex-1 Formate",
  "experimental": "FIG. 5. Effect of 5′-nucleotides on direct sialyltransferase activity (panel a) and reverse sialylation (panel b). a. Varying concentrations of 5′-CDP or 5′-CMP were added to 100 mM acceptor (specified below), 0.15 mM CMP-[9-^3H]NeuAc and either ST3Gal-II (0.2 mU), ST3Gal-III (0.5 mU) or ST6Gal-I (0.2 mU) for 4 h at 37° C. Products were separated using Sep-Pak C18 method. ST3Gal-III activity was measured using acceptor 4-O-MeGalβ1,4GlcNAcβ-O-Bn in the presence of 5′-CDP (●) and 5′-CMP (◯). ST6Gal-I activity was measured using Gal β1,4GlcNAcβ-O-Bn in the presence of 5′-CDP (▴) and 5′-CMP (Δ). ST3Gal-II using D-Fucβ1,3GalNAcα-O-Bn in the presence of 5′-CDP (▪) and 5′-CMP (□). b) Reverse sialylation by ST3Gal-II was measured in reaction mixtures containing 0.2 mM [9-^3H] [3], 7 mM 5′-CMP, ST3Gal-II (2 mU), D-Fucβ1,3GalNAcα-OBn (3.0 mM) and varying doses of either 5′-CDP (▴), 5′-UMP (◯) or 2-deoxy 5′-CMP (●) for 4 hours at 37° C. Reaction product ([9-^3H]NeuAcα2,3DFucβ1,3 GalNAcα-O-Bn) was isolated using Sep-Pak C18 method. In some runs, where was absent, the amount of CMP-NeuAc produced was quantified using the Dowex-1 Formate method in the presence of varying doses of 5′-CDP (▪).\nBesides pH other distinctions were also observed between forward and reverse sialylation. In this regard, citrate ions tended to inhibit forward sialylation but not reverse sialylation activity (Table V). For these studies, the effect of citrate on the forward sialylation activity of ST3Gal-I, ST3Gal-II, ST3Gal-III and ST6Gal-I was examined. Reverse sialylation activity of ST3Gal-II was also measured in terms of: i) the formation of CMP-NeuAc from 5′-CMP; and ii) the transfer of NeuAc from this newly synthesized CMP-NeuAc to another O-glycan. From the data (Table V), it is evident that citrate inhibits the direct sialylation activity of all the enzymes mentioned above. However, both the synthesis of CMP-[9-^3H]NeuAc from 5′-CMP as well as the synthesis of [9-^3H]NeuAcα2,3D-Fucβ1,3 GalNAcα-O-Bn using the newly formed CMP-[9-^3H]NeuAc through reverse sialylation of ST3Gal-II was not inhibited by citrate.\nThe effect of 5′-nucleotides on forward sialylation (FIG. 5a) and reverse sialylation (FIG. 5b) were examined. […] The overall formation of [9-^3H]NeuAcα2,3D-Fucβ1,3 GalNAcα-O-Bn by the two-step reverse sialylation process, however, was inhibited by 5′-CDP and this is consistent with the finding that 5′-CDP inhibits forward sialylation in the second step.",
  "data": [
    {"compound": "Nc1ccn([C@@H]2O[C@H](COP(=O)(O)OP(=O)(O)O)[C@@H](O)[C@H]2O)c(=O)n1", "note": "[5′-CDP]", "values": [
      {"measurement": "Effect on first step of reverse sialylation (formation of CMP-[9-3H]NeuAc from 5′-CMP)", "result": "did not inhibit"}
    ]}
  ]
}
